Laboratory results published in patent publication US20240239795A1, “NOVEL AZAINDOLE DERIVATIVES AS ANTIVIRAL AGENTS” (Centre National de la Recherche Scientifique, priority 2021, published 2024).

Assays:
[1] = test system: WNV virus, Kunjin strain (KUNV); assay: Antiviral activity against the WNV virus Kunjin strain in HeLa cells (nanoluciferase reporter); format: cell-based; conditions: West Nile virus, KUNV-luciferase reporter virus, MOI=0.1, 24 h
ZIKV BeH8 strain = assay: Antiviral activity against the Zika virus in HeLa cells (viral RNA by qRT-PCR); conditions: for IC50: Zika virus, HeLa, 24 h, read-out: IC50 ZIKV
[2] = test system: MAYV virus, TRVL4576 strain; assay: Antiviral activity against the Mayaro virus in HeLa cells (luciferase reporter); conditions: 24 h, read-out: IC50 MAYV
[3] = test system: CHIKV virus, LR-OPY1 strain; assay: Antiviral activity against the Chikungunya virus in HeLa cells (luciferase/GFP reporter); conditions: for IC50: Chikungunya virus, HeLa, 24 h, read-out: IC50 CKV
[4] = test system: SARS-COV2 virus, BetaCoV/France/IDF0371/2020; assay: Antiviral activity against SARS-COV2 coronavirus in VeroE6 cells (viral RNA by qRT-PCR); format: cell-based; conditions: 1.25 μM, 24 h

SMILES	IC50 [1]	concentration that prevents infection of the Hela cells by the strain ZIKV BeH-8 (ZIKV BeH8 strain; HeLa cells, MOI=0.1, 24 h)	IC50 (ZIKV BeH8 strain)	IC50 [2]	IC50 [3]	concentration that prevents infection of the Hela cells by the Chikungunya virus ([3]; HeLa cells, MOI=0.1, 24 h)	effect on infection of the cells by the SARS-COV2 virus [4]
Cc1ccc(C(=O)Nc2cccc(-c3c[nH]c4ncc(-c5ccccc5)cc34)c2)c(=O)n1-c1ccc(F)cc1 [Compound 4, 1-(4-fluorophenyl)-6-methyl-2-oxo-1,2-dihydro-pyridine-3-carboxylic acid [3-(5-phenyl-1H-pyrrolo[2,3-b]pyridin-3-yl)-phenyl]-amide]	1320 nM	greater than or equal to 100 nM	290 nM	313 nM	243 nM	greater than or equal to 100 nM	
O=C(Nc1ccc(F)cc1)C1(C(=O)Nc2cccc(-c3c[nH]c4ncc(-c5ccccc5)cc34)c2)CC1 [Compound 5, Cyclopropane-1,1-dicarboxylic acid (4-fluoro-phenyl)-amide [3-(5-phenyl-1H-pyrrolo[2,3-b]pyridin-3-yl)-phenyl]-amide]							reduces the infection
Cc1ccc(C(=O)Nc2ccc(F)c(-c3c[nH]c4ncc(-c5ccccc5)cc34)c2)c(=O)n1-c1ccc(F)cc1 [Compound 15, 1-(4-fluorophenyl)-6-methyl-2-oxo-1,2-dihydro-pyridine-3-carboxylic acid [4-fluoro-3-(5-phenyl-1H-pyrrolo[2,3-b]pyridin-3-yl)-phenyl]-amide]	934 nM						
Nc1nc(Nc2ccc3c(c2)CC[C@@H](N2CCCC2)CC3)nn1-c1cc2c(nn1)-c1ccccc1CCC2 [R428/Bemcentinib, reference compound]			285 nM		239 nM		
